Measured values as given in patent US10369133B2, “Immunosuppressive compounds and therapeutics” (UNIVERSITY OF TENNESSEE RESEARCH FOUNDATION, priority 2013, dated 2019).
Values joined by “and” are separate entries in the source; they are usually repeats but may differ in a detail not shown here. Equal entries are not always repeated.

Experiments:
[1] = test system: PHA-stimulated T cells; assay: T cell activation markers in medium of PHA-stimulated T cells by ELISA; assay type: cell-based, human; details: 5 μM; for level of IFNγ / level of TNFα: medium of T cells following PHA stimulation; for level of IL-2 / level of IL-2 receptors: medium of T cells, 48 h following PHA stimulation
Protocol: Briefly, human peripheral blood mononuclear cells PBMCs were isolated from human buffy coat using Ficoll-Paque. T cells ([…]) were isolated from PBMCs using dynabeads for human CD3+ T cells and subjected to PHA (1 μg/mL) stimulation for 24 h alone or with JP-3-110 (5 μM) and MPA (5 μM) for additional 48 h. The PHA-stimulated proliferation of T cells is characterized by a quick drop in the early stage (24 h) and a following fast-proliferative stage. FIGS. 3B and 3C show charts depicting the levels of IL-2, IL-2 receptor, TNFα and IFNγ in the media of T cells at 48 h following PHA stimulation. IL-2 and IL-2 receptor were transient expressed markers for early stage T cell activation while TNFα and IFNγ were stably expressed markers for later-stage T cell activation. Results are presented as the mean±S.D., n=6.
PBMCs were isolated using Ficoll Paque. T cells were isolated from PBMCs using Dynabeads for. T cells were stimulated with PHA (1 μg/ml) for 24 h alone or in the presence of TNP (5 μM) or JP-3-110 (5 μM) for additional 4 days. The total number of PBMCs was measured using T4 Automatic Cell Counter (Nexcelom, Lawrence, Mass.). The extent of T cell activation was determined by measuring the level of IL-2, IL-2sRa, TNFα and IFN-γ in the medium using ELISA at indicated time.
Mixed lymphocytes reaction was used to determine the immunosuppressive effects of MPA and JP-3-110. T cells were purified using dynabeads from peripheral blood mononuclear cells (PBMCs), which were initially isolated from human buffy coat (FIG. 8A). […] The levels of IL-2, IL-2sRa, TNFα and IFNγ were detected by ELISA to study the effects of JP-3-110 and MPA on T cell activation. IL-2 and IL-2R typically peaked at the first 48 h after PHA stimulation as markers for the early stage T cell activation, while TNFα and IFNγ were constitutively expressed by PHA-stimulated T cells as later-stage markers for T cell activation. […] However, the results might be due to an overlap between the immunosuppressive pathway and the anti-inflammatory pathway of JP-3-110 and MPA.

[2] = test system: NF-κB; assay: NF-κB SEAP reporter gene assay in INS-1E cells; assay type: cell-based, rat; details: for NF-κB activities in INS-1E cells: printed "at 504" (FIG. 2B: 5 μM), cytokine cocktail 10 ng/mL TNFα, 5 ng/mL IL-1β, 10 ng/mL IFN-γ, 24 hours
Protocol: Briefly, a plasmid construct containing NF-kB promoter and SEAP gene was transferred into INS-1E cells by lipofectamine. SEAP was then expressed and secreted into culture supernatant and allowed […] detection using a substrate PNPP under 405 nm. […] NF-kB activity was measured 24 hours after addition of cytokine cocktail (10 ng/mL TNFα, 5 ng/mL IL-1β and 10 ng/mL IFN-γ) alone or with JP-3-110 (5 μM) or TNP (5 μM) or MPA (5 μM). Blank, no cytokine stimulation. Cyt, cytokine cocktail. Results are presented as the mean±S.D., n=3.
INS-1E cells which were stably transfected with the SEAP gene containing the response-element for NF-κB were used to screen for anti-inflammatory activity. Briefly, 10^6 cells/well were seeded overnight followed by treatment with 10 ng/mL human recombinant TNFα and either TNP or hybrid drug JP-3-110 (1 μM). SEAP activity was measured 18 h later in supernatant samples (50 µL) using the NF-κB SEAPorter™ Assay Kit (IMGENEX, San Diego, Calif.) and a microplate luminometer. SEAP activity was normalized to the total protein content.

[3] = Hydrolytic stability of JP-3-110 aqueous solution by HPLC; assay type: physicochemical; details: aqueous solution (0.4 mg/mL) stored in 4° C. for 1 week
Protocol: The peak at 2 minutes was denoted as MPA degraded from JP-3-110.
(§1) Quinic acid amide analog TNP was synthesized as described before. See Zeng et al., 2009, Bioorganic & Medicinal Chemistry Letters, 19:5458-5460. JP-3-110 was synthesized by conjugating TNP with MPA and the structure of JP-3-110 was confirmed by 1H NMR. FIG. 1B. […] FIGS. 7A-7D. To improve solubility, the inventors conceived to introduce aqueous solubility enhancing groups such as ionizable groups —CO2H, —SO3H or amino groups, sugars at positions R1, R2 and/or R10 of Formulas II and III. Such introduction would require routine skills. The ester bond of JP-3-110 is susceptible to hydrolytic degradation, releasing TNP and MPA as two single drugs. More than 40% of JP-3-110 in the aqueous solution will be degraded when stored in 4° C. for 1 week (FIGS. 9A-9C).

[4] = Aqueous solubility of JP-3-110 by HPLC (saturated water solution); assay type: physicochemical
Protocol: The column was Inertsil ODS-3, 250×4.6 mm, 5 μm. […] From top to bottom, 0.2, 2, 20, 200, 2000 μg/mL of JP-3-110 in acetonitrile (ACN).
as §1

[5] = test system: human islets; assay: Annexin V-FITC flow cytometry of apoptotic cells in human islets; assay type: cell-based; details: 20 μM, 5 days coculture
Protocol: Results are presented as the mean±S.D., n=3. […] Apoptotic cells were stained in dark (arrows). […] Islet was collected and dispersed with 0.25% Trypsin/EDTA into single cell suspension. P3 indicated the percentage of apoptotic cells. All experiments were performed in triplicates. Results are presented as the mean±SD. *p<0.05 as determined by an unpaired Student's t-test, n=6.
The apoptosis of INS-1E cells was analyzed using terminal deoxynucleotidyl transferase dUTP nick end labeling (TUNEL). Briefly, following JP-3-110 treatment for 48 h and cytokine cocktail treatment for additional 48 h, INS-1E cells were characterized by the DeadEnd™ Colorimetric TUNEL system (Promega, Madison, Wis., USA), in which fragmented DNA from apoptotic cells was labeled with biotinylated nucleotide and detected using hydrogen peroxide and diaminobenzidine. For human islets, following treatment with JP-3-110 and cytokines, human islets were digested with 0.25% trypsin/EDTA into a single-cell suspension, stained with the Annexin V-FITC Apoptosis Detection Kit (Abcam, Cambridge, Mass.) and analyzed with flow cytometry. Annexin V binds to phosphatidylserine on the cell surface, which is a feature found in apoptotic cells. Fluorescent intensity was analyzed using CellQuest software (BD Bioscience, Franklin Lakes, N.J.). […]
We then determined the conjugation with TNP can reduce the pro-apoptotic effect of MPA. […]

| SMILES | level of IFNγ [1] | level of TNFα [1] | level of IL-2 [1] | level of IL-2 receptors [1] | reduction in NF-κB activities compared among the three groups ([2]; MPA, TNP and JP-3-110 compared, cytokine cocktail) | NF-κB activities in INS-1E cells [2] | JP-3-110 degraded in aqueous solution [3] | solubility class according to USP solubility criteria [4] | solubility ([4]; thermodynamic from solid, by HPLC) | apoptotic cells in human islets (annexin V) [5] |
| --- | --- | --- | --- | --- | --- | --- | --- | --- | --- | --- |
| CCCCNC(=O)[C@]1(O)C[C@@H](O)[C@@H](O)[C@H](OC(=O)CC/C(C)=C/Cc2c(OC)c(C)c3c(c2OC(C)=O)C(=O)OC3)C1 [JP-3-110, (1R,2R,3R,5S)-5-(butylcarbamoyl)-2,3,5-trihydroxycyclohexyl (E)-6-(4-acetoxy-6-methoxy-7-methyl-3-oxo-1,3-dihydroisobenzofuran-5-yl)-4-methylhex-4-enoate] | moderate inhibition | moderate inhibition | did not have any effect | did not have any effect | most reduction | significantly reduced | More than 40% | practically insoluble | 480 µg/mL and 800 µM | significantly reduced the percentage of apoptotic cells |
| COc1c(C)c2c(c(O)c1C/C=C(\C)CCC(=O)O)C(=O)OC2 [MPA, mycophenolic acid, reference compound] | moderate inhibition | moderate inhibition | did not have any effect | did not have any effect | – | significantly reduced | – | – | – | induced substantial apoptotic cell death |
